Earlier results, collected in US9005185B2, “Nanochanneled device and related methods” (The Board of Regents of the University of Texas System, priority 2008, dated 2015).

Target: T1, Aromatase (Homo sapiens, UniProt P11511)
T1 sequence (P11511 1-503): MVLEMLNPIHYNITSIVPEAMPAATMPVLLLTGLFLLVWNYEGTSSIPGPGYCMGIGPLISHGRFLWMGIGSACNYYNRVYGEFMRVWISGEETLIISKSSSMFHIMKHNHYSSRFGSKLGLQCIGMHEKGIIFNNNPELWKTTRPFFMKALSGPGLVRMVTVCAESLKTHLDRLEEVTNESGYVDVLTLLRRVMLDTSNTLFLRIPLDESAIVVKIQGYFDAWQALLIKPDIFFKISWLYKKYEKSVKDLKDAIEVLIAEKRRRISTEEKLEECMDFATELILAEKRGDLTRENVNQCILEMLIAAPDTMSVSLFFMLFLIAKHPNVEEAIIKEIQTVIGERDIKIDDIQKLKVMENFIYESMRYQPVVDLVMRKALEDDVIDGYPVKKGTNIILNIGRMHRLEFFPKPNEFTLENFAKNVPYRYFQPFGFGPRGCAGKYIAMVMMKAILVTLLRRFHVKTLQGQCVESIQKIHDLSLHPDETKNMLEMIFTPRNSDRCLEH

inhibits estrogen biosynthesis: approximately 99%
SMILES: N#Cc1ccc(C(c2ccc(C#N)cc2)n2cncn2)cc1 [letrozole]
